Data: patent publication US10369113B2, “Prostate specific membrane antigen (PSMA) targeted nanoparticles for therapy of prostate cancer” (The Johns Hopkins University, priority 2007, dated 2019)

Tested on: PSMA-expressing LNCaP human prostate cancer cells
Assay: In vitro toxicity of nanoparticles (MTT assay after 15 min exposure)
Assay type: cell-based
Conditions: 48 hrs after 15 min exposure, 100 nM docetaxel equivalent, read-out: inhibition of cell growth
Description: The cytotoxicity of the nontargeted particles in that study was ascribed to a combination of nonspecific uptake and to the expected nonspecific release of docetaxel from the particle into the media over the exposure period. […] Following determination of the amount of docetaxel loading in the particles, PSMA-expressing LNCaP human prostate cancer cells were exposed to equimolar amounts (i.e. 100 nM) of loaded nanoparticles or free docetaxel. To minimize the effects of nonspecific endocytosis, cells were only exposed to test compounds for 15 min at which time cells were washed and then placed in drug free media. Cell counts were determined by converting absorbance from MTT assay to cell number based on a standard curve of absorbance from MTT assay of known amounts of LNCaP cells. In this assay, 48 hrs following exposure, the growth of cells exposed to the nontargeted nanoPEG particles was inhibited by 65% while cell growth was inhibited 89% by docetaxel and 95% by the nanoPSMAi2 particles. […]
Cytotoxicity assays were performed as described previously (Denmeade, S. R., et al. J Natl Cancer Inst, 95: 990-1000, 2003). […] Cells were then incubated in media at 37° C. and at the end of 48 hours and 96 hours, effects on cell growth were determined using the MTT assay (Promega, WI) according to manufacturer's instructions.

## CC(=O)O[C@@]12CO[C@@H]1C[C@H](O)[C@@]1(C)C(=O)[C@H](O)C3=C(C)[C@@H](OC(=O)[C@H](O)[C@@H](NC(=O)OC(C)(C)C)c4ccccc4)C[C@@](O)([C@@H](OC(=O)c4ccccc4)[C@H]21)C3(C)C [docetaxel]
  inhibition at 0.1 µM: 89%
